From US8039603B2, “Nucleic acid and corresponding protein entitled 121P1F1 useful in treatment and detection of cancer” (Agensys, Inc., priority 2001, dated 2011)

Tested on: LAPC-4 cells
Test: Androgen regulation of 121P1F1 in vitro (Northern blot)
Assay type: cell-based, human
Conditions: LAPC-4 cells in charcoal-stripped medium
Description: FIG. 22. Androgen regulation of 121P1F1 in vitro. […] cells were grown in charcoal-stripped medium and stimulated with the synthetic androgen mibolerone, for either 14 or 24 hours. Northern blot was performed with 10 μg of total RNA for each sample, and probed with the 121P1F1 SSH fragment. A picture of the ethidium-bromide staining of the RNA gel is also presented (lowest panel). Hybridization of the same northern blot with the androgen-dependent gene TMPRSS2 confirms the quality of the androgen deprivation.
Since 121P1F1 was derived from a […] LAPC-9 AD (28 days post-castration) subtraction, an assay was performed for androgen regulation of 121P1F1 (FIG. 22). LAPC-4 cells were grown in charcoal-stripped medium and stimulated with the synthetic androgen mibolerone, for either 14 or 24 hours. It was shown that the expression of 121P1F1 went down in absence of normal serum, and is modulated in presence of mibolerone, 24 hours after stimulation. The experimental samples were confirmed by testing for the expression of the androgen-regulated prostate cancer gene TMPRSS2.

C[C@@H]1CC2=CC(=O)CC[C@@H]2[C@H]2CC[C@@]3(C)[C@@H](CC[C@]3(C)O)[C@@H]21 [mibolerone]
expression of 121P1F1 (24 hours after stimulation): modulated | TMPRSS2 expression (at 14 and 24 hours): induced
